Results taken from patent publication US10807982B2, “Bromodomain inhibitors” (CELGENE QUANTICEL RESEARCH, INC., priority 2015, dated 2020).

Legend:
[1] = system: Raji, human Burkitts lymphoma cells; test: Cell-MTS cellular proliferation assay, Raji; assay type: cell-based; conditions: 168 hr incubation
Description: (§1) A colorimetric cellular proliferation assay (Cell-MTS assay) was performed to assess the ability of the heterocyclic derivative […] inhibitors disclosed herein to effect the proliferation of established cancer cell lines.
(§2) The Cell-MTS assay is a 7-day plate-based colorimetric assay which quantifies the amount of newly generated NADH in the presence or absence of test compound. The NADH level is used for the quantification of cancer cell proliferation.
(§3) Established cancer cell lines with a variety of driving mutations were obtained from American Type Culture Collection (ATCC) and routinely passaged according to ATCC protocols. For routine assay, these cells were seeded at densities which enabled ˜90% confluence after 7 days of culture. Raji, human Burkitts lymphoma cells, (cMYC) were seeded at 15,000 cells per 96-well. HL-60, human proleukemia cells, (NRAS, p16, p53, c-Myc amplified) were seeded at 5,000 cells per 96-well. NCI-H460, human non-small cell lung cancer cells. (KRAS, PIK3CA, STLK11, p16) were seeded at 3,000 cells per 96-well. 24 hr after plating, cells received an 11 point dilution of test compound with final concentration ranges from 100 µM to 2.0 nM. Cells were incubated in the presence of compound for 168 hr at 37° C., and 5% CO2. At the end of this incubation period, 80 µL of media is removed and 20 µL of CellTiter 96® AQueous Non-Radioactive Cell Proliferation Assay solution (Promega) was added. The cells were incubated until the OD490 was >0.6. IC50 values were calculated using the IDBS XLfit software package and include background subtracted OD490 values and normalization to DMSO controls. Cellular proliferation IC50 values were uploaded and archived using the Chem Biography Platform. Table 3 provides the results of the in vitro enzyme inhibition assay experiments and the in vitro cell-based assay experiments performed with the compounds disclosed herein: […]

BRD4(BD1) = BRD4(BD1) (Homo sapiens (Human), UniProt O60885); test: In vitro enzyme inhibition assay (BRD4 AlphaScreen, H4-tetraacetyl peptide); assay type: binding; conditions: BRD4(BD1) 2 nM, peptide 15 nM
Description: Determination of the IC50 for the heterocyclic derivative BRD4 inhibitors disclosed herein was performed as follows. His-tagged […] was cloned, expressed and purified to homogeneity. Filipakopoulos et al., 468 Nature 1067 (2010). BRD4 binding and inhibition was assessed by monitoring the interaction of biotinylated H4-tetraacetyl peptide (AnaSpec, H4K5/8/12/16(Ac), biotin—labeled) with the target using the AlphaScreen technology (Life Technologies). In a 384-well ProxiPlate BRD4(BD1) (2 nM final) was combined with peptide (15 nM final) in 50 mM HEPES (pH 7.3), 10 mM NaCl, 0.25 mM TCEP, 0.1% (w/v) BSA, and 0.005% (w/v) Brij-35 either in the presence of DMSO (final 0.4% DMSO) or compound dilution series in DMSO. After 20 min incubation at RT, Alpha streptavidin donor beads and Nickel Chelate acceptor beads were added to a final concentration of 5 μg/mL. After 2 hr of equilibration, plates were read on an Envision instrument and the IC50 was calculated using a four parameter non-linear curve fit.
The ability of the compounds disclosed herein to inhibit BRD4 activity was quantified and the respective IC50 value was determined.

[2] = system: HL-60, human proleukemia cells; test: Cell-MTS cellular proliferation assay, HL-60; assay type: cell-based; conditions: HL-60 cells, 168 hr incubation
Description: as §1, §2, §3

[3] = system: NCI-H460, human non-small cell lung cancer cells; test: Cell-MTS cellular proliferation assay, NCI-H460; assay type: cell-based; conditions: 168 hr incubation
Description: as §1, §2, §3

IC50 (BRD4(BD1)) | SMILES | further results
≤ 500 nM | CCS(=O)(=O)Nc1cc(-c2cc(C)c(=O)n(C)c2)c2oc(C3CC3)cc2c1 | IC50 ([1]; Homo sapiens): ≤ 500 nM; IC50 ([2]; Homo sapiens): ≤ 500 nM; IC50 ([3]; Homo sapiens): 500 to 5000 nM
≤ 500 nM | Cc1cc(-c2cc(S(C)(=O)=O)ccc2OCC2CC2)c2n(c1=O)CCC2F (racemic) [Example 90, (±)-8-[2-(cyclopropylmethoxy)-5-methylsulfonylphenyl]-1-fluoro-6-methyl-2,3-dihydro-1H-indolizin-5-one] | –
≤ 500 nM | CCc1cc2cc(S(C)(=O)=O)cc(-c3cn(C)c(=O)c4ccccc34)c2o1 [4-(2-ethyl-5-(methylsulfonyl)benzofuran-7-yl)-2-methylisoquinolin-1(2H)-one, reference compound] | IC50 ([1]; Homo sapiens): ≤ 500 nM; IC50 ([2]; Homo sapiens): ≤ 500 nM; IC50 ([3]; Homo sapiens): 500 to 5000 nM
500 to 5000 nM | CN1Cc2ccc(-c3cn(C)c(=O)c4ccccc34)cc2S1(=O)=O [Example 1, 2-methyl-4-(2-methyl-1,1-dioxo-3H-1,2-benzthiazol-6-yl)isoquinolin-1-one] | IC50 ([1]; Homo sapiens): 500 to 5000 nM; IC50 ([2]; Homo sapiens): 500 to 5000 nM; IC50 ([3]; Homo sapiens): 500 to 5000 nM
500 to 5000 nM | Cn1cc(-c2ccc3c(c2)S(=O)(=O)NC3)c2ccccc2c1=O [Example 2, 4-(1,1-dioxo-2,3-dihydro-1,2-benzothiazol-6-yl)-2-methylisoquinolin-1-one] | IC50 ([1]; Homo sapiens): > 5000 nM; IC50 ([2]; Homo sapiens): 500 to 5000 nM; IC50 ([3]; Homo sapiens): > 5000 nM
≤ 500 nM | COc1cc2c(cc1-c1cc(C)c(=O)n(C)c1)S(=O)(=O)N(C)C2 [Example 3, 5-(5-methoxy-2-methyl-1,1-dioxo-3H-1,2-benzothiazol-6-yl)-1,3-dimethylpyridin-2-one] | IC50 ([1]; Homo sapiens): > 5000 nM; IC50 ([2]; Homo sapiens): 500 to 5000 nM; IC50 ([3]; Homo sapiens): > 5000 nM
≤ 500 nM | COc1cc2c(cc1-c1cn(C)c(=O)c3ccccc13)S(=O)(=O)N(C)C2 [Example 4, 4-(5-methoxy-2-methyl-1,1-dioxo-3H-1,2-benzothiazol-6-yl)-2-methylisoquinolin-1-one] | IC50 ([1]; Homo sapiens): 500 to 5000 nM; IC50 ([2]; Homo sapiens): ≤ 500 nM; IC50 ([3]; Homo sapiens): 500 to 5000 nM
≤ 500 nM | CN1Cc2cc(Oc3ccc(F)cc3F)c(-c3ccc(=O)n(C)c3)cc2S1(=O)=O [Example 12, 5-[5-(2,4-difluorophenoxy)-2-methyl-1,1-dioxo-3H-1,2-benzothiazol-6-yl]-1-methylpyridin-2-one] | –
≤ 500 nM | CCc1cc2cc(S(C)(=O)=O)cc(-c3cc(C)c(=O)n(C)c3)c2o1 [Example 21, 5-(2-ethyl-5-methylsulfonyl-1-benzofuran-7-yl)-1,3-dimethylpyridin-2-one] | –
≤ 500 nM | Cc1cc(-c2nc(NS(C)(=O)=O)c3nc(C)n(Cc4ccc(F)cc4)c3n2)cn(C)c1=O [Example 22, N-[2-(1,5-dimethyl-6-oxopyridin-3-yl)-9-[(4-fluorophenyl)methyl]-8-methylpurin-6-yl]methanesulfonamide] | –
≤ 500 nM | Cc1cc(-c2cc(S(C)(=O)=O)cc3cc(-c4ccccc4)oc23)cn(C)c1=O [Example 25, 1,3-dimethyl-5-(5-methylsulfonyl-2-phenyl-1-benzofuran-7-yl)pyridin-2-one] | –
– | Cc1cc(-c2cc(NS(C)(=O)=O)c3nc(C)n([C@H](C)c4ccccc4)c3c2)cn(C)c1=O [Example 45, N-[6-(1,5-dimethyl-6-oxopyridin-3-yl)-2-methyl-1-[(1R)-(1-phenylethyl)]benzimidazol-4-yl]methanesulfonamide] | IC50 [1]: ≤ 500 nM; IC50 [2]: ≤ 500 nM; IC50 [3]: 500 to 5000 nM
≤ 500 nM | CCS(=O)(=O)Nc1cc(-c2cc(C)c(=O)n(C)c2)c2nc(C3CC3)n(C)c2c1 [Example 54, N-[2-cyclopropyl-7-(1,5-dimethyl-6-oxopyridin-3-yl)-3-methylbenzimidazol-5-yl]ethanesulfonamide] | –
≤ 500 nM | CCS(=O)(=O)Nc1cc(-c2cn(C)c(=O)c3ccccc23)c2nc(C3CC3)n(C)c2c1 [Example 55, N-[2-cyclopropyl-3-methyl-7-(2-methyl-1-oxoisoquinolin-4-yl)benzimidazol-5-yl]ethanesulfonamide] | –
≤ 500 nM | COc1cc(-c2cc(CS(C)(=O)=O)cc3nc(C4CC4)oc23)cn(C)c1=O [Example 63, 5-[2-cyclopropyl-5-(methylsulfonylmethyl)-1,3-benzoxazol-7-yl]-3-methoxy-1-methylpyridin-2-one] | –
≤ 500 nM | CCS(=O)(=O)c1cc(-c2cc(C)c(=O)n(C)c2)cc2c1nc(C)n2CC1CC1 [Example 69, 5-[3-(cyclopropylmethyl)-7-ethylsulfonyl-2-methylbenzimidazol-5-yl]-1,3-dimethylpyridin-2-one] | –
≤ 500 nM | CCS(=O)(=O)c1cc(-c2cc(OC)c(=O)n(C)c2)cc2c1nc(C)n2CC1CC1 [Example 70, 5-[3-(cyclopropylmethyl)-7-ethylsulfonyl-2-methylbenzimidazol-5-yl]-3-methoxy-1-methylpyridin-2-one] | –
≤ 500 nM | CCc1nc2c(NS(C)(=O)=O)cc(-c3cc(C)c(=O)n(C)c3)cc2n1CC1CC1 [Example 74, N-[1-(cyclopropylmethyl)-6-(1,5-dimethyl-6-oxopyridin-3-yl)-2-ethylbenzimidazol-4-yl]methanesulfonamide] | –
≤ 500 nM | CCn1c(-c2cc(C)c(=O)n(C)c2)cc2c(S(C)(=O)=O)cccc21 [Example 75, 5-(1-ethyl-4-methylsulfonylindol-2-yl)-1,3-dimethylpyridin-2-one] | –
≤ 500 nM | Cc1cc(-c2cc3c(S(C)(=O)=O)cccc3n2CC2CC2)cn(C)c1=O [Example 76, 5-[1-(cyclopropylmethyl)-4-methylsulfonylindol-2-yl]-1,3-dimethylpyridin-2-one] | –
≤ 500 nM | Cc1cc(-c2cc3c(S(C)(=O)=O)cccc3n2CCC2CC2)cn(C)c1=O [Example 77, 5-[1-(2-cyclopropylethyl)-4-methylsulfonylindol-2-yl]-1,3-dimethylpyridin-2-one] | –
≤ 500 nM | Cn1cc(-c2cc3c(S(C)(=O)=O)cccc3n2CC2CC2)c2ccccc2c1=O [Example 78, 4-[1-(cyclopropylmethyl)-4-methylsulfonylindol-2-yl]-2-methylisoquinolin-1-one] | –
≤ 500 nM | Cc1cc(-c2nc(NS(C)(=O)=O)c3nc(C)n(CC4CC4)c3n2)cn(C)c1=O [Example 81, N-[9-(cyclopropylmethyl)-2-(1,5-dimethyl-6-oxopyridin-3-yl)-8-methylpurin-6-yl]methanesulfonamide] | –
500 to 5000 nM | Cc1cc(-c2cc(S(C)(=O)=O)ccc2OCC2CC2)c2n(c1=O)CCC2(F)F [Example 89, 8-[2-(cyclopropylmethoxy)-5-methylsulfonylphenyl]-1,1-difluoro-6-methyl-2,3-dihydroindolizin-5-one] | –
≤ 500 nM | CCS(=O)(=O)Nc1cc(-c2cc(C)c(=O)n(C)c2)cc2c1nc(OC)n2CC1CC1 [Example 103, N-[1-(cyclopropylmethyl)-6-(1,5-dimethyl-6-oxopyridin-3-yl)-2-methoxybenzimidazol-4-yl]ethanesulfonamide] | –
≤ 500 nM | Cc1cc(-c2cc(NS(C)(=O)=O)c3c(F)nn(Cc4ccccc4)c3c2)cn(C)c1=O [Example 104, N-[1-benzyl-6-(1,5-dimethyl-6-oxopyridin-3-yl)-3-fluoroindazol-4-yl]methanesulfonamide] | –
≤ 500 nM | CCS(=O)(=O)Nc1cc(-c2cc(C)c(=O)n(C)c2)cc2c1c(F)nn2Cc1ccc(F)cc1 [Example 105, N-[6-(1,5-dimethyl-6-oxopyridin-3-yl)-3-fluoro-1-[(4-fluorophenyl)methyl]indazol-4-yl]ethanesulfonamide] | –
≤ 500 nM | CCS(=O)(=O)Nc1cc(-c2cc(C)c(=O)n(C)c2)cc2c1c(F)nn2Cc1ccccc1 [Example 106, N-[1-benzyl-6-(1,5-dimethyl-6-oxopyridin-3-yl)-3-fluoroindazol-4-yl]ethanesulfonamide] | –
